The values that follow come from PMC11696576, “Next generation thiazolyl ketone inhibitors of cytosolic phospholipase A2 α for targeted cancer therapy” (Nature Communications, 2025).

One data set relates to isolated human PBMCs. Put plainly: eicosanoid release from A23187-stimulated PBMCs (ELISA). The data set is classed as cell-based. Also noted: 6-Keto PGF1a / 12-HETE: unit not given here. The following applies: 5 µM; for LTB4 level, PBMCs / PGE2 level, PBMCs / TxB2 level, PBMCs: A23187, individual replicate. The protocol:
In PBMCs, the calcium ionophore A23187 stimulated the release of PGE2, TXB2, LTB4, 6-keto prostaglandin F1α (PGF1α), and 12-HETE.
PBMCs were isolated from buffy coats using Lymphoprep as described by the manufacturer ([…] Technologies, Vancouver, Canada). Red blood cells were lysed and removed using RBC lysis buffer (Roche, Basel, Switzerland) and the remaining cells were resuspended in 10 mL of RPMI-1640 supplemented with 5% FBS. The TC20 automated cell counter (BIO-RAD, Hercules, California, USA) was used to count the number of cells and check the viability by staining with trypan blue (0.4%) (NanoEnTek, Waltham, MA, USA). For experiments, 5 × 10^5 cells were seeded in 0.5 mL in 24 well plates with RPMI medium supplemented with 5% FBS, 0.3 mg/mL glutamine, and 0.1 mg/mL gentamicin. Cells were preincubated with inhibitors for 2 h before incubating with 30 µM Ca^2+ ionophore A23187 for 15 min to activate cPLA2α. After incubation, the supernatant was obtained by centrifugation at 5992 × g for 10 min at 4° and stored at −80 °C until assayed for PGE2, LTB4, TxB2, 6-Keto PGF1α, and 12S-HETE using enzyme-linked immunosorbent assays (ELISAs) (Cayman #514435, Cayman #10009292, Cayman #501020, Cayman #15210, and Enzo Lifesciences #ADI-900-050). After an overnight hybridization, the enzymatic conversion of substrate was read at OD420 nm using a Cytation 5 multimode platereader (Biotek Instruments, Winooski, VT, USA). Standard curves fit using 4-parameter logistic regression in myassays.com were used to calculate eicosanoid concentrations.

The subject of data set [1] is Jurkat E6.1 cells. Description: cell viability, CTG assay, Jurkat E6.1. The data set is classed as cell-based, human. To be noted: for viability signal, raw values: Figure 6e. The source says:
(§1) Data are the mean ± stdev of 3 biological replicates. […] Data are the mean ± stdev of 3 biological replicates.
Bjørn Tore Gjertsen (University of Bergen, Norway). […] The cell lines were not authenticated.

In data set [2] the test system is Jurkat E6.1 cells. Put plainly: intracellular ROS, ROS-red staining and flow cytometry, Jurkat E6.1. The data set is classed as cell-based, human. The arrangement: ROS Negative Cells / ROS Negative Cells (Figure S9 a) / ROS Negative Cells (Figure S9c): unit not given here. To be noted: AA 20 µM; rep1, rep2. How it is done: as §1
(§2) Rather, when combined with AVX420, exogenous AA augmented cell death (Fig. 6e). […] The response occurred within 1 h, peaked at 8–12 h, and preceded the loss of cell viability (Fig. S9a, b).
(§3) After treatment, cells were stained with cellular ROS Assay Kit (Cat. No. ab186029; Abcam, Cambridge, United Kingdom) following the manufacturer’s instructions, and ROS-positive cells were quantified by flow cytometry using either the NovoCyte flow cytometer, and Novoexpress Software v1.5.0 from Agilent Technologies (Santa Clara, USA) or the CytoFLEX flow cytometer and CytExpert analysis software v 2.5 from Beckman Coulter (California, United States). An example showing the gating strategy used to assess ROS-Red staining is found in Fig. S9d.
(A flow cytometer gives signals particle by particle.)

Data set [3] concerns CCRF-CEM cells. Put plainly: cell viability, CTG assay, CCRF-CEM. The following applies: for viability signal, raw values: Figure 6e.
Procedure: Data are the mean ± stdev of 3 biological replicates. c Viability of healthy T-cells measured by propidium iodide (PI) exclusion. Data are the mean ± stdev of 8 biological replicates for 1–16 µM AVX420, 5 for 32 µM AVX420 and 2 for 0.5 µM Staurosporine (Stau). d Cell viability measured by CTG assay in cells preincubated with 2.5 mM glutathione (GSH) or 2.5 mM N-acetyl cysteine (NAC) for 30 min before addition of 0.5 or 1 µM AVX420, 0.06 µM RSL-3, or 0.06 µM ML-210 for 24 h. Data are the mean ± stdev of 3 biological replicates. P-values were determined by one-way ANOVA with Dunnett’s correction for multiple testing and **** indicates P < 0.0001. e Cell viability measured by CTG assay. CCRF-CEM or Jurkat cells were co-treated with 0.5 µM AVX420 and either arachidonic acid (AA) at concentrations ranging from 1 to 100 µM or a mixture of 9 eicosanoids: 6-keto prostaglandin F1α, Thromboxane B2, prostaglandin F2α, prostaglandin E2, prostaglandin D2, 12(S)-HHTrE, 15(S)-HETE,12(S)-HETE, 5(S)-HETE at a final concentration of 2 ng/mL each (EIC-mix) for 24 h. Data are the mean ± stdev of 3 biological replicates. P-values were determined by two-way ANOVA with Sidak’s correction for multiple comparisons. f Proportion of intracellular ROS-positive cells measured by ROS-red staining and flow cytometry. Cells were treated with indicated concentrations of AVX420 (µM), 1 mM H2O2, 1 µM RSL-3, or 1 µM doxorubicin (dox) for 4 h. Data are the mean ± stdev of 3 biological replicates. g Intracellular ROS measurements in CCRF-CEM cells treated with AVX420 (0.5 µM), AVX002 (8 µM), or AACOCF3 (8 µM) for 4 h.
All cell lines were confirmed to be free of mycoplasma contamination. The cell lines were not authenticated. MV-4-11 were cultured in Iscove’s Modified Dulbecco’s Medium (Sigma, I3390). CCRF-CEM, Jurkat E6.1, and HL-60 cells were cultured in RPMI 1640 Medium RPMI-1640 medium (Sigma, R5886).
Another data set deals with whole blood. Description: eicosanoid release from LPS-stimulated whole blood. The data set is classed as cell-based, human. To be noted: for 15-HETE level, whole blood / PGE2 level, whole blood / TxB2 level, whole blood: individual replicate. Also noted: LTB4 / 5-HETE / 11,12-EET / 12-HETE: unit not given here. An excerpt: In whole blood, bacterial lipopolysaccharide (LPS) stimulated the release of PGE2, thromboxane B2 (TXB2), and 15-hydroxyeicosatetraenoic acid (HETE). […] The levels of leukotriene B4 (LTB4), 12-HETE, 5-HETE and 11,12-epoxyeicosatrienoic acid (EET) were not affected by LPS stimulation but increased when exogenous AA was included, irrespective of the presence of GK420 (Fig. S1a).
Fig. 3 Ex vivo suppression of eicosanoid production by GK420. a Eicosanoid levels (pmol/mL) in the plasma of whole blood pretreated with vehicle (DMSO), 3, 10 or 30 µM GK420,) 10 µM arachidonyl trifluoromethyl ketone (ATK), or 1 μM indomethacin (Indo) before stimulation with 1 µg/mL LPS for 24 h. […] All box and whisker plots show the mean (center line), stdev (box), and min and max values (whiskers) from 4 biological replicates. P-values were determined using RM-one way ANOVA with Dunnett’s correction for multiple comparisons.
Aliquots of 0.4 mL of heparinized whole blood were mixed with 1.6 mL of serum-free RPMI cultivation medium with- or without indomethacin (# I7378, Sigma-Aldrich), GK420, or arachidonyl trifluoromethyl ketone (ATK) (Cayman #62120), prior to the addition of lipopolysaccharides (LPS) (1 μg/mL) to activate the cPLA2α enzyme (LPS was from E. coli 026:B6 γ-irradiated, #L2654, Sigma-Aldrich). Exogenous arachidonic acid (5–10 µM) (#3555, Sigma-Aldrich) was added after 23.5 h, for the final 30 mins of the 24 h stimulation. Following treatment (24 h, 37 °C, 5% CO2), the diluted blood was centrifuged (5992 × g for 10 min at 4 °C) to isolate the plasma from the cell fraction. Plasma samples were stored at −80 °C until analysis. Samples were analyzed at the Lipid Maps Consortium, UCSD according to the standard methods. 200 µL of sample was subjected to solid phase extraction of the eicosanoids using the StrataX solid phase extraction columns from Phenomenex and analyzed by UHPLC-MS/MS using full standards mix.

The subject of data set [4] is CCRF-CEM cells. Description: intracellular ROS, ROS-red staining and flow cytometry, CCRF-CEM. The data set is classed as cell-based, human. To be noted: CCRF-CEM, 8 µM, 4 h. How it is done: as §1, §2, §3
Figure S9. Intracellular ROS accumulation and cell death. a. Time dependency of the in-crease in iROS following treatment with AVX420 in CCRF-CEM cells as measured by ROS-red stain-ing. Data are the mean ±stdev from ≥2 biological replicates b. […]
±stdev of ≥2 biological replicates c. intracellular ROS measurements in CCRF-CEM cells treated with 0.5 µM AVX420 in the presence of 20 µM arachidonic acid (AA) or 5 µM liproxstatin (Lip) for 4 hours. Data are the mean ± stdev of 2 biological replicates. d. […]
analysis of ROS Red staining by flow cytometry. (i) Gating of live cells using FSC-H versus SSC-H.
(ii) Gating based on ROS Deep Red staining under control conditions and after treatment with (iii) […]
(1 picture or pasted object on this page, not shown here)

“And” between values parts separate entries of the source, which are not always exact repeats. Identical values can stand only once.

As for `CC(Cc1ccc(O)c(O)c1)C(C)Cc1ccc(O)c(O)c1` (stereo not shown) [NDGA, nordihydroguaiaretic acid, reference compound], in the data set on isolated human PBMCs, the “LTB4 level, PBMCs” value is 125.8 pg/mL and 134 pg/mL and 192.1 pg/mL and 116.5 pg/mL; the “PGE2 level, PBMCs” value is 307.5 pg/mL and 191.3 pg/mL and 70.7 pg/mL and 334.8 pg/mL; the “TxB2 level, PBMCs” value was 14617 pg/mL and 11007 pg/mL and 1627.4 pg/mL and 14685.3 pg/mL. In addition, in the data set with isolated human PBMCs (A23187 stimulated), the “6-Keto PGF1a” value was 23.4 and 36.1; the 12-HETE was 69724.1 and 75249.5 and 44247.8.

In the case of `CCCCC/C=C\C/C=C\C/C=C\C/C=C\CCCC(=O)O` [AA], the “viability signal, raw values” is 945477,333333333 and 910583,466666667 and 794162,5 in the data set on Jurkat E6.1 cells [1] (Jurkat E6.1, AA-1, CTRL (no AVX420)); 896908,333333333 and 842500,133333333 and 777643 in the data set with Jurkat E6.1 cells [1] (Jurkat E6.1, AA-5, CTRL (no AVX420)); 858625 and 837920,133333333 and 768078,5 with Jurkat E6.1 cells [1] (Jurkat E6.1, AA-10, CTRL (no AVX420)); 835050 and 861305,466666667 and 719180 in the data set with Jurkat E6.1 cells [1] (Jurkat E6.1, AA-20, CTRL (no AVX420)); 846644,033333333 and 824265,666666667 and 673546,5 with CCRF-CEM cells [3] (AA-1, CTRL (no AVX420)); 927085,7 and 753657,333333333 and 655816,5 with CCRF-CEM cells [3] (AA-5, CTRL (no AVX420)). The “viability signal, raw values” with CCRF-CEM cells [3] (AA-10, CTRL (no AVX420)) is 862846,7 and 802148,333333333 and 667006,5; in the data set with CCRF-CEM cells [3] (AA-20, CTRL (no AVX420)) it was 903682,366666667 and 709873,666666667 and 638998,5; in the data set with CCRF-CEM cells [3] (AA-100, CTRL (no AVX420)) it was 925589,000333333 and 600588 and 592437,5. Besides, in the data set on Jurkat E6.1 cells [2], the “ROS Negative Cells (Figure S9c)” value was 97 and 95. Besides, the “ROS Positive Cells (Figure S9c)” value in the data set with Jurkat E6.1 cells [2] was 3 and 5.

Regarding `COc1ccc2c(c1)c(CC(=O)O)c(C)n2C(=O)c1ccc(Cl)cc1` [Indo, indomethacin], in the data set with whole blood (1 uM + LPS + AA), the 5-HETE is 68.97 and 43.93 and 45.12 and 44.17; the “11,12-EET” value is 9.56 and 11.87 and 10.26 and 11.6; the 12-HETE was 64.2 and 109.5 and 89.5 and 60.3; the LTB4 is 0.4 and 0.7 and 0.5. Moreover, in the data set with whole blood (1 uM + LPS + AA), the “15-HETE level, whole blood” value is 61.7 pmol/mL and 75.64 pmol/mL and 71.47 pmol/mL and 74.74 pmol/mL; the “PGE2 level, whole blood” value is 11.3 pmol/mL and 12.8 pmol/mL and 10.1 pmol/mL and 11.1 pmol/mL; the “TxB2 level, whole blood” value was 1.2 pmol/ml (2×) and 1.6 pmol/ml and 1 pmol/ml. Also, in the data set on whole blood (1 uM + LPS), the “15-HETE level, whole blood” value is 0.16 pmol/mL and 0.77 pmol/mL and 0.18 pmol/mL and 0.15 pmol/mL; the “PGE2 level, whole blood” value was found to be 0.05 pmol/mL; the “TxB2 level, whole blood” value is 0.05 pmol/ml (3×) and 0.1 pmol/ml. In addition, the “production of PGE2 and TXB2” value with whole blood (whole blood, LPS, in the absence and presence of exogenous free AA) is given as “suppressed the production”.

With `CCCCC/C=C\C/C=C\C/C=C\C/C=C\CCCC(=O)C(F)(F)F` [ATK, arachidonyl trifluoromethyl ketone], the “intracellular ROS (iROS)” value in the data set with CCRF-CEM cells [4] is “increased iROS”. Further, in the data set with whole blood (10 uM + LPS + AA), the 5-HETE was 62.15 and 48.84 and 43.16 and 63.64; the “11,12-EET” value was 12.43 and 12.11 and 11.23 and 10.37; the 12-HETE is 131.5 and 102.1 and 99.1 and 71.1; the LTB4 is 0.7 and 0.6 and 0.8 and 0.5. In the data set with whole blood (10 uM + LPS + AA), the “15-HETE level, whole blood” value is 74.26 pmol/mL and 68.85 pmol/mL and 74.36 pmol/mL and 63.52 pmol/mL; the “PGE2 level, whole blood” value was 16.3 pmol/mL and 19.3 pmol/mL and 11.3 pmol/mL and 11.2 pmol/mL; the “TxB2 level, whole blood” value was 13.1 pmol/mL and 35.6 pmol/mL and 22.8 pmol/mL and 21.1 pmol/mL. Moreover, in the data set with whole blood (10 uM + LPS), the “15-HETE level, whole blood” value is 0.26 pmol/mL and 1.13 pmol/mL and 0.31 pmol/mL and 0.48 pmol/mL; the “PGE2 level, whole blood” value was 0.1 pmol/mL and 2.4 pmol/mL and 0.5 pmol/mL and 1.1 pmol/mL; the “TxB2 level, whole blood” value is 1.2 pmol/mL and 9.9 pmol/mL and 2.1 pmol/mL and 3.4 pmol/mL.

For the compound `COC(=O)c1ccc([C@@H]2c3[nH]c4ccccc4c3C[C@@H](C(=O)OC)N2C(=O)CCl)cc1` [RSL-3], the “cell viability (Control = 100)” value in the data set with Jurkat E6.1 cells [1] (Jurkat cells, 0.06 µM, VEH) was 40 and 34 and 26; in the data set with CCRF-CEM cells [3] (0.06 µM, VEH) it was 29 and 32 and 36.

`Cc1ccc(-c2cc(C(F)(F)F)nn2-c2ccc(S(N)(=O)=O)cc2)cc1` [Celecoxib, celecoxib, reference compound]: in the data set on isolated human PBMCs, the “LTB4 level, PBMCs” value is 120.7 pg/mL and 156.9 pg/mL and 348.2 pg/mL and 111.7 pg/mL; the “PGE2 level, PBMCs” value is 146.1 pg/mL and 36.8 pg/mL and 25.1 pg/mL and 59.9 pg/mL; the “TxB2 level, PBMCs” value is 2358.3 pg/mL and 690.2 pg/mL and 212.9 pg/mL and 1753.1 pg/mL.

As to `COc1ccc2cc([C@H](C)C(=O)O)ccc2c1` [Naproxen, naproxen, reference compound], in the data set on isolated human PBMCs, the “LTB4 level, PBMCs” value was 580.9 pg/mL and 678 pg/mL and 1105.1 pg/mL and 392.2 pg/mL; the “PGE2 level, PBMCs” value is 99.6 pg/mL and 53.1 pg/mL and 27.7 pg/mL and 49.6 pg/mL; the “TxB2 level, PBMCs” value was 2252.6 pg/mL and 716 pg/mL and 281.3 pg/mL and 1975.1 pg/mL.
